Patent US9011853B2, “B7-H4 fusion proteins and methods of use thereof” (Amplimmune, Inc., priority 2009, dated 2015)
Values joined by “and” are separate entries in the source; they are usually repeats but may differ in a detail not shown here. Equal entries are not always repeated.

How the values were obtained:
DBA/1 mice = assay: Therapeutic CIA study AA#79 (female mice), disease score; type: in vivo, mouse
Experimental: DBA/1 mice (10 per group) aged 7-9 weeks were used for the CIA model. Mice from several vendors (Jackson Laboratories, Harlan Laboratories, and Taconic Farms) were tested and it was determined that Taconic mice are most appropriate for the CIA studies. Taconic mice develop more consistent and severe disease symptoms and show continued disease progression, while mice from the other vendors often show stable, less severe disease, even in the absence of treatment. female (F) mice in AA#79 and male (M) mice in AA#80, were tested to determine which gender to use in future experiments.
On the day before the study is initiated, the hair on the right flank of each mouse was removed using an electric clipper. A metal identification tag was placed on the right ear of each mouse. On Day 0, mice were immunized with 100 μL of chicken collagen type II/Complete Freund's Adjuvant (CII/CFA) emulsion in the right flank. On Day 20, the hair on the left flank of each mouse was removed using an electric clipper, and on Day 21, mice were immunized with 100 μL of chicken collagen type II/Incomplete Freund's Adjuvant (CII/IFA) emulsion in the left flank. Pre-filled syringes of CII/CFA and CII/IFA emulsion purchased from Hooke Laboratories were used to ensure consistent dosing with and potency of the immunogen.
Early arthritis symptoms, such as erythema and mild swelling, usually appear on Day 21, and on Day 28, more severe symptoms such as swelling in many digits and inflammation extending to the tarsal joint are typically present. Each limb is evaluated for severity of arthritis symptoms three times a week using a widely accepted arthritis severity score system, shown in Table 2. The scores from each of the 4 limbs are summed to yield the disease score of each mouse. […]
Treatment was initiated when the average disease score for the study animals was greater than four. This corresponded to Day 29 in AA#79 and Day 24 in […]. By waiting until animals are symptomatic, it was ensured that the model is performed in a therapeutic rather than prophylactic mode.
B7-H4-Ig, RPA110010, and murine B7-H4-Ig proteins were administered by intraperitoneal (IP) injection 3 times a week for a total of 8 doses. RPA110010 is an extracellular domain variant of B7-H4-Ig, SEQ ID NO:126. Control murine and human IgG proteins were given once a week for a total of 3 doses. […] All proteins were diluted to the desired concentration (500 μg in 500 μL, or 1 mg/mL) with sterile PBS immediately before injection. Vehicle control mice receive Amplimmune formulation buffer diluted 1:10 in PBS, with an injection volume of 500 μL.

[1] = system: serum levels of 58 analytes; assay: Serum biomarker analysis, quantitative immunoassay multi-analyte profiling (Rules-Based Medicine RodentMAP v2.9), AA#80; type: in vivo, mouse; details: serum
Experimental: In AA#80, serum samples were collected on Day 27, Day 34, Day 41 and Day 55 via the submandibular vein. Approximately 200 μL of blood per mouse was collected in Microtainer® serum separator tubes. Serum was removed following centrifugation and stored at <−65° C. until analysis.
Selected serum samples were sent to Rules-Based Medicine (Austin, Tex.) for quantitative immunoassay multi-analyte profiling of serum samples, with the goal of identifying biomarkers that could be used to monitor disease progression and response to B7-H4-Ig treatment. Day 27, Day 34, and Day 41 sera from the three representative mice in the B7-H4-Ig group (tag #3332, 3334, and 3338) and three representative mice in the Synagis® group (tag #3324, 3329, and 3330) were analyzed for levels of 58 analytes using the RodentMAP v2.9 Testing Service.
Data from the Rules-Based Medicine analysis was analyzed using Microsoft Excel and GraphPad Prism software. T-tests were performed to compare the levels of each analyte in the B7-H4-Ig versus Synagis® treated samples. No correction was made for multiple comparisons. Additionally, correlation coefficients were calculated for each analyte versus disease score.

For “Human B7-H4-Ig: human B7-H4 extracellular domain fused to hinge, CH2 and CH3 regions of human immunoglobulin Cγ1 chain; representative SEQ ID NOs:114-137”, the CIA disease score (DBA/1 mice; AA#79, Study Day 12, individual mouse (Tag#)) was 1 (2×) and 0 (4×), the CIA disease score (DBA/1 mice; AA#79, Study Day 18, individual mouse (Tag#)) was 2 (2×) and 1 (3×) and 0 and the CIA disease score (DBA/1 mice; AA#79, Study Day 22, individual mouse (Tag#)) was 2 (5×) and 1. The CIA disease score (DBA/1 mice; AA#79, Study Day 25, individual mouse (Tag#)) was 2 (3×) and 3 (2×) and 4, the CIA disease score (DBA/1 mice; AA#79, Study Day 27, individual mouse (Tag#)) was 3 (2×) and 5 and 4 (3×) and the CIA disease score (DBA/1 mice; AA#79, Study Day 29, individual mouse (Tag#)) was 6 and 5 (2×) and 4 (2×) and 7. For the same substance, the CIA disease score (DBA/1 mice; AA#79, Study Day 32, individual mouse (Tag#)) was 5 (2×) and 4 (2×) and 2, the CIA disease score (DBA/1 mice; AA#79, Study Day 34, individual mouse (Tag#)) was 4 (2×) and 2 and 5 (2×) and the CIA disease score (DBA/1 mice; AA#79, Study Day 36, individual mouse (Tag#)) was 4 and 5 and 1 and 6 and 3 and 12. The CIA disease score (DBA/1 mice; AA#79, Study Day 39, individual mouse (Tag#)) was 5 and 12 and 6 and 9 and 3 and 11, the CIA disease score (DBA/1 mice; AA#79, Study Day 41, individual mouse (Tag#)) was 5 (2×) and 12 and 7 and 10 (2×) and the CIA disease score (DBA/1 mice; AA#79, Study Day 43, individual mouse (Tag#)) was 3 (2×) and 10 (2×) and 6 and 9. For the same substance, the CIA disease score (DBA/1 mice; AA#79, Study Day 46, individual mouse (Tag#)) was 4 and 9 and 10 (2×) and 11 and 3, the CIA disease score (DBA/1 mice; AA#79, Study Day 48, individual mouse (Tag#)) was 5 and 10 (3×) and 6 and 11 and the CIA disease score (DBA/1 mice; AA#79, Study Day 50, individual mouse (Tag#)) was 6 (2×) and 9 (2×) and 10 and 12. The CIA disease score (DBA/1 mice; AA#79, Study Day 54, individual mouse (Tag#)) was 3 and 10 (2×) and 13 (2×) and 5, the CIA disease score (DBA/1 mice; AA#79, Study Day 57, individual mouse (Tag#)) was 5 (2×) and 11 and 10 (2×) and 12 and the “SAP (Serum Amyloid P): Human LgG1 control vs. human B7-H4 Ig, ALL” value ([1]; p of difference between groups, ALL) was 0.26. For the same substance, the “SAP (Serum Amyloid P): Human LgG1 control vs. human B7-H4 Ig, D 27” value ([1]; p of difference between groups, D 27) was 0.32, the “SAP (Serum Amyloid P): Human LgG1 control vs. human B7-H4 Ig, D 34” value ([1]; p of difference between groups, D 34) was 0.50 and the “SAP (Serum Amyloid P): Human LgG1 control vs. human B7-H4 Ig, D 41” value ([1]; p of difference between groups, D 41) was 0.13. For the same substance, the “M-CSF (Macrophage-Colony Stimulating Factor)” value ([1]; Day 27, LDD 0.01795) was 6.88 ng/mL and 6.51 ng/mL and 6.21 ng/mL, the “MIP-1gamma (Macrophage Inflammatory Protein-1gamma)” value ([1]; Day 27, LDD 0.0736) was 43.2 ng/mL and 38.6 ng/mL and 32.1 ng/mL and the “TNF-alpha (Tumor Necrosis Factor-alpha)” value ([1]; Day 27, LDD 0.137) was “<low>”. The “TEMP-1 (Tissue Inhibitor of Metalicproteinase Type-1)” value ([1]; Day 27, LDD 0.18) was 1.38 ng/mL and 1.31 ng/mL and 1.14 ng/mL, the “IL-5 (Interleukin-5)” value ([1]; Day 27, LDD 0.194) was 0.474 ng/mL and 0.333 ng/mL and the “MIP-1alpha (Macrophage Inflammatory Protein-1alpha)” value ([1]; Day 27, LDD 0.2255) was 2.83 ng/mL and 3.13 ng/mL and 3.03 ng/mL. The “MIP-3beta (Macrophage Inflammatory Protein-3beta)” value ([1]; Day 27, LDD 0.465) was 2.6 ng/mL and 2.79 ng/mL and 2.52 ng/mL, the “Tissue Factor” value ([1]; Day 27, LDD 0.5175) was 8.32 ng/mL and 11.7 ng/mL and 10 ng/mL and the “MPO (Myeloperoxidase)” value ([1]; Day 27, LDD 0.95) was 245 ng/mL and 227 ng/mL and 191 ng/mL. For the same substance, the “SGOT (Serum Glutamic-Oxaloacetic Transaminase)” value ([1]; Day 27, LDD 1.86) was 74.3 µg/mL and 84.6 µg/mL and 94.3 µg/mL, the “TPO (Thromboproletin)” value ([1]; Day 27, LDD 2.66) was 38 ng/mL and 39.8 ng/mL and 34.2 ng/mL and the “SAP (Setrum Amtyloid P)” value ([1]; Day 27, LDD 5.4) was 41 µg/mL and 39.5 µg/mL and 30.7 µg/mL. For the same substance, the “MIP-2 (Macrophage Inflammatory Protein-2)” value ([1]; Day 27, LDD 7.174) was 20.9 pg/mL and 16.3 pg/mL and 21.6 pg/mL, the “MMP-9 (Matrix Metalloproteinase-9)” value ([1]; Day 27, LDD 10) was 266 ng/mL and 140 ng/mL and the “MCP-1 (Monocyte Chemoattractant Protein-1)” value ([1]; Day 27, LDD 16.924) was 72.6 pg/mL and 55.4 pg/mL and 66.9 pg/mL. The “VCAM-1 (Vescular Cell Adhesion Molecule-1)” value ([1]; Day 27, LDD 19) was 2250 ng/mL and 2120 ng/mL and 2130 ng/mL, the “MDC (Macrophage-Derived Chemokine)” value ([1]; Day 27, LDD 21.85) was 1250 pg/mL and 1110 pg/mL and 1040 pg/mL and the Myoglobin ([1]; Day 27, LDD 24) was 17.5 ng/mL and 12.1 ng/mL and 9.69 ng/mL. The “MCP-3 (Monocyte Chemoattractant Protein-3)” value ([1]; Day 27, LDD 31.36) was 160 pg/mL and 120 pg/mL and 129 pg/mL, the “VEGF (Vescular Endotheial Cell Growth Factor)” value ([1]; Day 27, LDD 38.2) was 150 pg/mL and 128 pg/mL and 160 pg/mL and the “IP-10 (Inducible Protein-10)” value ([1]; Day 27, LDD 40.28) was 57.3 pg/mL and 55.5 pg/mL and 38.6 pg/mL. The “LIF (Leukemia Infabitory Factor)” value ([1]; Day 27, LDD 43.6) was 1540 pg/mL and 1500 pg/mL.
